Measured values published in patent US12150995B2, “IRAK degraders and uses thereof” (Kymera Therapeutics, Inc., priority 2020, dated 2024).

The molecules below were run against T1, IRAK4 (Homo sapiens, UniProt Q9NWZ3) (assay: IRAK4 MSD Degradation in OCI-LY10). Conditions: OCI-LY10 cells, Meso Scale Discovery, incubated 4 to 24 hours.
T1 construct: endogenous in cells; host or cells: OCI-LY10
T1 sequence (Q9NWZ3 1-460): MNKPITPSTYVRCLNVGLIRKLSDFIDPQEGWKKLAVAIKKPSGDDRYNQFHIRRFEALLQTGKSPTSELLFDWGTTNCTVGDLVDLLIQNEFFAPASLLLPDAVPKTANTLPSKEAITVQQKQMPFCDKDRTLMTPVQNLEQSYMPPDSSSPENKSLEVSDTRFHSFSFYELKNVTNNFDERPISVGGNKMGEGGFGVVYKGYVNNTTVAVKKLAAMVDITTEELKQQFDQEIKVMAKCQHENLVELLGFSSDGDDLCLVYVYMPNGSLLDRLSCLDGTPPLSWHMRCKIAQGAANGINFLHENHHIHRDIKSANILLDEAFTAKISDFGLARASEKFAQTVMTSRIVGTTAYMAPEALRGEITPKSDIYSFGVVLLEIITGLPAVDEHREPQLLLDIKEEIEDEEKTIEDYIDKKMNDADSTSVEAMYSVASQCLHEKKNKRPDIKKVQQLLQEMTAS
Assay type: cell-based
How it was run: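 IRAK4 degradation was quantified by Meso Scale electrochemiluminescence (anti-IRAK4 capture and detection antibodies) in lysates of treated OCI-LY10 cells. Compounds were dosed at 8 concentrations (1:3 dilutions, top 1 to 10 μM) for 4 to 24 h; DC50 derived by three-parameter logistic fitting.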

Row | SMILES | DC50
1 | COc1cc2nn([C@H]3CC[C@H](CN4CCC(c5cccc6c(N7CCC(=O)NC7=O)cncc56)CC4)CC3)cc2cc1NC(=O)c1cncc(C#N)c1 [I-121] | 10 to 50 nM
2 | COc1cc2nc([C@H]3CC[C@H](CN4CCC(c5ccc6c(N7CCC(=O)NC7=O)cncc6c5)CC4)CC3)sc2cc1NC(=O)c1cccc(C(F)(F)F)n1 [I-125] | < 10 nM
3 | CC(C)Nc1cc(-n2ccc3cc(C#N)cnc32)ncc1C(=O)N[C@H]1CC[C@H](CN2CCC(c3ccc4c(N5CCC(=O)NC5=O)cncc4c3)CC2)CC1 [I-127] | 10 to 50 nM
4 | Cn1c(=O)n(C2CCC(=O)NC2=O)c2cccc(C3CCN(C[C@H]4CC[C@H](n5cc6cc(NC(=O)n7ccc8cc(C#N)cnc87)ccc6n5)CC4)CC3)c21 (stereo partly shown) [I-129] | < 10 nM
5 | COc1cc2nn([C@H]3CC[C@H](CN4CCC(c5cccc6c5n(C)c(=O)n6C5CCC(=O)NC5=O)CC4)CC3)cc2cc1NC(=O)c1cc(F)cc(C(F)(F)F)c1 (stereo partly shown) [I-132] | < 10 nM
6 | COc1cc2nn([C@H]3CC[C@H](CN4CCC(c5cccc6c5n(C)c(=O)n6C5CCC(=O)NC5=O)CC4)CC3)cc2cc1NC(=O)c1cnc(C)c(Cl)c1 (stereo partly shown) [I-134] | > 200 nM
7 | COc1cc2nn([C@H]3CC[C@H](CN4CCC(c5cccc6c5n(C)c(=O)n6C5CCC(=O)NC5=O)CC4)CC3)cc2cc1NC(=O)c1cc(Cl)cnn1 (stereo partly shown) [I-135] | > 200 nM
8 | COc1cc2nn([C@H]3CC[C@H](CN4CCC(c5cccc6c5n(C)c(=O)n6C5CCC(=O)NC5=O)CC4)CC3)cc2cc1NC(=O)c1cnc(C#N)c(Cl)c1 (stereo partly shown) [I-136] | > 200 nM
9 | COc1cc2nn([C@H]3C[C@H](CN4CCC(c5c(C)ccc6c5n(C)c(=O)n6C5CCC(=O)NC5=O)CC4)C3)cc2cc1NC(=O)c1cccc(C(F)(F)F)n1 (stereo partly shown) [I-137] | < 10 nM
10 | COc1cc2nn([C@H]3C[C@H](CN4CCC(c5c(OC)ccc6c5n(C)c(=O)n6C5CCC(=O)NC5=O)CC4)C3)cc2cc1NC(=O)c1cccc(C(F)(F)F)n1 (stereo partly shown) [I-138] | < 10 nM
11 | COc1cc2nn([C@H]3C[C@H](CN4CCC(c5c(F)ccc6c5n(C)c(=O)n6C5CCC(=O)NC5=O)CC4)C3)cc2cc1NC(=O)c1cccc(C(F)(F)F)n1 (stereo partly shown) [I-141] | 10 to 50 nM
12 | Cn1c(=O)n(C2CCC(=O)NC2=O)c2ccc(Cl)c(C3CCN(C[C@H]4C[C@H](n5cc6cc(NC(=O)c7cccc(C(F)(F)F)n7)c(Cl)cc6n5)C4)CC3)c21 (stereo partly shown) [I-144] | 50 to 100 nM
13 | Cn1c(=O)n(C2CCC(=O)NC2=O)c2ccc(F)c(C3CCN(C[C@H]4C[C@H](n5cc6cc(NC(=O)c7cccc(C(F)(F)F)n7)ncc6n5)C4)CC3)c21 (stereo partly shown) [I-147] | 50 to 100 nM
14 | Cc1ccc2c(c1C1CCN(C[C@H]3C[C@H](n4cc5cc(NC(=O)c6cccc(C(F)(F)F)n6)ccc5n4)C3)CC1)n(C)c(=O)n2C1CCC(=O)NC1=O (stereo partly shown) [I-148] | 100 to 200 nM
15 | Cn1c(=O)n(C2CCC(=O)NC2=O)c2ccc(Cl)c(C3CCN(C[C@H]4C[C@H](n5cc6cc(NC(=O)c7cccc(C(F)(F)F)n7)ncc6n5)C4)CC3)c21 (stereo partly shown) [I-149] | 100 to 200 nM
16 | Cn1c(=O)n(C2CCC(=O)NC2=O)c2ccc(Cl)c(C3CCN(C[C@H]4C[C@H](n5cc6cc(NC(=O)c7cccc(C(F)(F)F)n7)ccc6n5)C4)CC3)c21 (stereo partly shown) [I-150] | 100 to 200 nM
17 | COc1ccc2c(c1C1CCN(C[C@H]3C[C@H](n4cc5cc(NC(=O)c6cccc(C(F)(F)F)n6)ccc5n4)C3)CC1)n(C)c(=O)n2C1CCC(=O)NC1=O (stereo partly shown) [I-152] | 10 to 50 nM
18 | COc1cc2nn([C@H]3CC[C@H](CN4C[C@H]5C[C@@H]4CN5c4cccc5c(N6CCC(=O)NC6=O)cncc45)CC3)cc2cc1NC(=O)c1cccc(C(F)(F)F)n1 [I-155] | 10 to 50 nM
19 | COc1cc2nn([C@H]3CC[C@H](CN4[C@@H]5C[C@H]4CN(c4cccc6c4n(C)c(=O)n6C4CCC(=O)NC4=O)C5)CC3)cc2cc1NC(=O)c1cccc(C(F)(F)F)n1 (stereo partly shown) [I-158] | < 10 nM
20 | Cn1c(=O)n(C2CCC(=O)NC2=O)c2cccc(N3CCN(C[C@H]4CC[C@H](n5cc6cc(NC(=O)c7cncc(C#N)c7)c(OC(F)(F)F)cc6n5)CC4)CC3)c21 (stereo partly shown) [I-160] | > 200 nM
21 | C[C@@H]1CN(c2cccc3c2n(C)c(=O)n3C2CCC(=O)NC2=O)CCN1C[C@H]1CC[C@H](n2cc3cc(NC(=O)c4cccc(C(F)(F)F)n4)ccc3n2)CC1 (stereo partly shown) [I-163] | < 10 nM
22 | Cn1c(=O)n(C2CCC(=O)NC2=O)c2cccc(N3CC4CCC(C3)N4C[C@H]3CC[C@H](n4cc5cc(NC(=O)c6cccc(C(F)(F)F)n6)ccc5n4)CC3)c21 (stereo partly shown) [I-164] | < 10 nM
23 | COc1cc2nn([C@H]3CC[C@H](CN4CCN(c5cccc6c5n(C)c(=O)n6C5CCC(=O)NC5=O)CC4)CC3)cc2cc1NC(=O)c1cncc(C#N)c1 (stereo partly shown) [I-165] | < 10 nM
24 | N#Cc1cnc2c(C(=O)Nc3ccc4nn([C@H]5CC[C@H](CN6CCC(c7ccc8c(N9CCC(=O)NC9=O)cncc8c7)CC6)CC5)cc4c3)cnn2c1 [I-170, 6-Cyano-N-[2-[4-[[4-[4-(2,4-dioxohexahydropyrimidin-1-yl)-7-isoquinolyl]-1-piperidyl]methyl]cyclohexyl]indazol-5-yl]pyrazolo[1,5-a]pyrimidine-3-carboxamide] | > 200 nM
25 | Cn1c(=O)n(C2CCC(=O)NC2=O)c2cccc(C3CCN(C[C@H]4CC[C@H](n5cc6cc(NC(=O)c7cccc(C(F)(F)F)n7)ccc6n5)CC4)C(C(F)(F)F)C3)c21 (stereo partly shown) [I-172] | > 200 nM
26 | COc1cc2nn([C@H]3CC[C@H](CN4CCC(c5ccc6c(c5C)n(C)c(=O)n6C5CCC(=O)NC5=O)CC4)CC3)cc2cc1NC(=O)c1cccc(C(F)(F)F)n1 (stereo partly shown) [I-173] | < 10 nM

The remaining lines, values ahead:

Row | DC50 | SMILES
27 | 100 to 200 nM | COc1cc2nn([C@H]3CC[C@H](CN4CCC(c5ccc6c(N7CCC(=O)NC7=O)cncc6c5)CC4)CC3)cc2cc1NC(=O)c1cncc(C#N)c1 [I-122]
28 | 10 to 50 nM | COc1cc2nn([C@H]3CC[C@H](CN4CCC(c5cccc6c(N7CCC(=O)NC7=O)cncc56)CC4)CC3)cc2cc1NC(=O)c1cc(F)cc(C(F)(F)F)c1 [I-123]
29 | < 10 nM | Cn1c(=O)n(C2CCC(=O)NC2=O)c2ccc(F)c(C3CCN(C[C@H]4CC[C@H](n5cc6cc(NC(=O)c7cccc(C#N)n7)ccc6n5)CC4)CC3)c21 (stereo partly shown) [I-128]
30 | < 10 nM | COc1cc2nn([C@H]3CC[C@H](CN(C)C4CCN(c5cccc6c5n(C)c(=O)n6C5CCC(=O)NC5=O)CC4)CC3)cc2cc1NC(=O)c1cncc(C(F)(F)F)c1 (stereo partly shown) [I-130]
31 | 10 to 50 nM | COc1cc2nn([C@H]3CC[C@H](CN(C)C4CCN(c5cccc6c5n(C)c(=O)n6C5CCC(=O)NC5=O)CC4)CC3)cc2cc1NC(=O)c1cc(F)cc(C(F)(F)F)c1 (stereo partly shown) [I-131]
32 | 10 to 50 nM | CN(C[C@H]1C[C@H](n2cc3cc(NC(=O)c4cccc(C(F)(F)F)n4)c(C(F)F)cc3n2)C1)C1CCN(c2cccc3c2n(C)c(=O)n3C2CCC(=O)NC2=O)CC1 (stereo partly shown) [I-139]
33 | 100 to 200 nM | Cn1c(=O)n(C2CCC(=O)NC2=O)c2cccc(C3CCN(C[C@H]4C[C@H](n5cc6cc(NC(=O)c7cccc(C(F)(F)F)n7)ccc6n5)C4)CC3)c21 (stereo partly shown) [I-140]
34 | 10 to 50 nM | Cn1c(=O)n(C2CCC(=O)NC2=O)c2ccc(F)c(C3CCN(C[C@H]4C[C@H](n5cc6cc(NC(=O)c7cccc(C(F)(F)F)n7)c(Cl)cc6n5)C4)CC3)c21 (stereo partly shown) [I-142]
35 | 50 to 100 nM | Cc1ccc2c(c1C1CCN(C[C@H]3C[C@H](n4cc5cc(NC(=O)c6cccc(C(F)(F)F)n6)c(Cl)cc5n4)C3)CC1)n(C)c(=O)n2C1CCC(=O)NC1=O (stereo partly shown) [I-143]
36 | 10 to 50 nM | COc1ccc2c(c1C1CCN(C[C@H]3C[C@H](n4cc5cc(NC(=O)c6cccc(C(F)(F)F)n6)c(Cl)cc5n4)C3)CC1)n(C)c(=O)n2C1CCC(=O)NC1=O (stereo partly shown) [I-145]
37 | < 10 nM | Cn1c(=O)n(C2CCC(=O)NC2=O)c2ccc(F)c(C3CCN(C[C@H]4C[C@H](n5cc6cc(NC(=O)c7cccc(C(F)(F)F)n7)ccc6n5)C4)CC3)c21 (stereo partly shown) [I-151]
38 | < 10 nM | CC(C)Nc1cc(-n2ccc3cc(C#N)cnc32)ncc1-c1cn([C@H]2CC[C@H](CN3CCC(c4cccc5c4n(C)c(=O)n5C4CCC(=O)NC4=O)CC3)CC2)nn1 (stereo partly shown) [I-159]
39 | > 200 nM | O=C1CCN(c2cncc3cc(N4CCN(C[C@H]5CC[C@H](n6cc7cc(NC(=O)c8cccc(C(F)(F)F)n8)ccc7n6)CC5)CC4)ccc23)C(=O)N1 [I-161]
40 | > 200 nM | Cc1ccc2c(c1C1CCN(C[C@H]3CC[C@H](n4cc5cc(NC(=O)c6cccc(C(F)(F)F)n6)ncc5n4)CC3)CC1)n(C)c(=O)n2C1CCC(=O)N(C)C1=O (stereo partly shown) [I-162]
41 | > 200 nM | COc1cc2nn([C@H]3CC[C@H](CN4C[C@H]5C[C@@H]4CN5c4cccc5c4n(C)c(=O)n5C4CCC(=O)NC4=O)CC3)cc2cc1NC(=O)c1cncc(C#N)c1 (stereo partly shown) [I-166]
42 | < 10 nM | COc1cc2nn([C@H]3CC[C@H](CN4C5CCC4CN(c4cccc6c4n(C)c(=O)n6C4CCC(=O)NC4=O)C5)CC3)cc2cc1NC(=O)c1cccc(C(F)(F)F)n1 (stereo partly shown) [I-167]
43 | < 10 nM | COc1cc2nn([C@H]3CC[C@H](CN4C[C@@H]5C[C@H]4CN5c4cccc5c4n(C)c(=O)n5C4CCC(=O)NC4=O)CC3)cc2cc1NC(=O)c1cccc(C(F)(F)F)n1 (stereo partly shown) [I-168]
44 | > 200 nM | COc1cc2nn([C@H]3CC[C@H](CN4CCC(c5ccc6c(c5)n(C)c(=O)n6C5CCC(=O)NC5=O)CC4)CC3)cc2cc1NC(=O)c1cncc(C#N)c1 (stereo partly shown) [I-169]
45 | 10 to 50 nM | O=C1CCN(c2cncc3c(C4CCN(C[C@H]5CC[C@H](c6nc7cnc(NC(=O)c8cccc(C(F)(F)F)n8)cc7s6)CC5)CC4)cccc23)C(=O)N1 [I-171]
46 | < 10 nM | COc1cc2nn([C@H]3CC[C@H](CN4CCC(c5cccc6c5n(C)c(=O)n6C5CCC(=O)NC5=O)CC4)CC3)cc2cc1NC(=O)c1ccccc1F (stereo partly shown) [I-174]
